According to patent publication US4206215A, “Antimicrobial bis-[4-(substituted-amino)-1-pyridinium]alkanes” (Sterling Drug Inc., priority 1977, dated 1980):
Where two headings read alike, the source gives them in different places.

Columns and labels:
[1] = system: young adult male Swiss-Webster strain albino mice; test: Acute oral toxicity (ALD50); format: in vivo
Protocol: (§1) The acute oral toxicity (ALD50) of several representative examples was determined as follows: Groups of 3 young adult male Swiss-Webster strain albino mice were fasted approximately 4 hours before medication and then medicated once orally by stomach tube.

[2] = Acute oral toxicity (ALD50); format: in vivo; details: mouse, in vivo, po, mice, aqueous solution; read-out: 7-Day ALD50
Protocol: as §1

E. coli Vogel = test: In vitro antibacterial activity, MIC (modified Autotiter method); format: cell-based, Escherichia coli; details: 18-20 hours at 37° C.
In short: (§2)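 Semisynthetic glucose medium at double strength, already inoculated, is added to cups holding compound diluted twofold in sterile water. The series starts from a 1,000 mcg./ml. solution and ends at final concentrations of 500 through 0.06 mcg./ml.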

E. coli AB1932-1 = test: as above; format: cell-based, Escherichia coli; details: 18-20 hours at 37° C.
In short: as §2

E. coli 100/B22 = test: as above; format: cell-based, Escherichia coli; details: 18-20 hours at 37° C.
In short: as §2

P. mirab. MGH-1 = test: as above; format: cell-based, Proteus mirabilis; details: 18-20 hours at 37° C.
In short: as §2

A. niger 16404 = test: In vitro antifungal activity, MIC (modified Autotiter method); format: cell-based, Aspergillus niger; details: 18-20 hours at 37° C.
In short: as §2

Ps. aerug. MGH-2 = test: In vitro antibacterial activity, MIC (modified Autotiter method); format: cell-based, Pseudomonas aeruginosa; details: 18-20 hours at 37° C.
In short: as §2

C. albicans Wisc. = test: In vitro antifungal activity, MIC (modified Autotiter method); format: cell-based, Candida albicans; details: 18-20 hours at 37° C.
In short: as §2

C. albicans 10231 = test: as above; format: cell-based, Candida albicans; details: 18-20 hours at 37° C.
In short: as §2

S. pyogen. C203 = test: In vitro antibacterial activity, MIC (modified Autotiter method); format: cell-based, Streptococcus pyogenes; details: 18-20 hours at 37° C.
In short: as §2

K. pneum. 39645 = test: as above; format: cell-based, Klebsiella pneumoniae; details: 18-20 hours at 37° C.
In short: as §2

S. Aureus Smith = test: as above; format: cell-based, Staphylococcus aureus; details: 18-20 hours at 37° C.
In short: as §2

T. menta. 9129 = test: In vitro antifungal activity, MIC (modified Autotiter method); format: cell-based, Trichophyton mentagrophytes; details: 18-20 hours at 37° C.
In short: as §2

[3] = system: Herpes simplex type 2 virus; test: Virucidal activity in vitro (plaque inhibition test); format: cell-based; details: 2 mg. of test compound on growth medium
Protocol: Virucidal activity of representative examples against Herpes simplex type 2 virus was determined in vitro employing a procedure similar to the plaque inhibition test for detection of specific inhibitors of DNA-containing viruses published by E. C. Herrmann, Jr., Proc. Soc. Exp. Biol. Med. 107, 142 (1961) wherein 2 mg. of the test compound was placed on the surface of the growth medium.

S. Aureus ATCC 6538 = test: Effect of serum on bacteriostatic activity (serial tube dilution test); format: cell-based, Staphyloccocus aureus; details: for MIC: Staphylococcus aureus, ATCC6538
Protocol: (§3) Antibacterial effectiveness in the presence of serum was determined for representative examples by the standard serial tube dilution test wherein paired comparisons of minimum inhibitory concentrations (MIC) were determined in the absence and in the presence of heat inactivated (30 min. at 56° C.) horse serum (40%) in the test medium. The results are expressed as the fold increase in MIC (mcg./ml.) versus Staphyloccocus aureus and Escherichia coli caused by the presence of serum and are presented in Table B hereinbelow.

E. Coli ATCC 8739 = test: as above; format: cell-based, Escherichia coli; details: for MIC: Escherichia coli, ATCC8739
Protocol: as §3

[4] = 125 mg/kg oral, aqueous solution
[5] = 250 mg/kg oral, aqueous solution
[6] = 500 mg/kg oral, aqueous solution
[7] = 1000 mg/kg oral, aqueous solution
[8] = 125 mg/kg oral, suspension in 1% G.T.
[9] = 250 mg/kg oral, suspension in 1% G.T.
[10] = 500 mg/kg oral, suspension in 1% G.T.
[11] = 1000 mg/kg oral, suspension in 1% G.T.

SMILES | Mortality 7 Days [1, 4] | Mortality 7 Days [1, 5] | Mortality 24 Hrs [1, 5] | Mortality 7 Days [1, 6] | Mortality 24 Hrs [1, 6] | Mortality 7 Days [1, 7] | Mortality 24 Hrs [1, 7] | LD50 at 168 h [2] [mg/kg] | MIC E. coli Vogel (E. coli Vogel) [µg/mL] | MIC E. coli AB1932-1 (E. coli AB1932-1) [µg/mL] | MIC E. coli 100/B22 (E. coli 100/B22) [µg/mL] | MIC P. mirab. MGH-1 (P. mirab. MGH-1) [µg/mL] | MIC A. niger 16404 (A. niger 16404) [µg/mL] | MIC Ps. aerug. MGH-2 (Ps. aerug. MGH-2) [µg/mL] | MIC C. albicans Wisc. (C. albicans Wisc.) [µg/mL] | MIC C. albicans 10231 (C. albicans 10231) [µg/mL] | MIC S. pyogen. C203 (S. pyogen. C203) [µg/mL] | MIC K. pneum. 39645 (K. pneum. 39645) [µg/mL] | MIC S. Aureus Smith (S. Aureus Smith) [µg/mL] | MIC T. menta. 9129 (T. menta. 9129) [µg/mL] | other results
CCCCCCCNc1cc[n+](CCCCCCCCCC[n+]2ccc(NCCCCCCC)cc2)cc1 [Example 27] | 1/3 | 0/3 | 0/3 | 1/3 | 1/3 | 3/3 | 1/3 | 250 | 0.5 | 1.0 | 0.5 | 7.8 | 3.9 | 7.8 | 1.0 | 1.96 | 0.5 | 1.0 | 0.25 | 1.0 | Mortality 24 Hrs [1, 4]: 0/3
CCCCCCCNc1cc[n+](CCCCCCCCC[n+]2ccc(NCCCCCCC)cc2)cc1 [Example 25, 1,9-Bis-[4-(heptylamino)-1-pyridinium]nonane dichloride] | – | 1/3 | 1/3 | 1/3 | 1/3 | 3/3 | 3/3 | 500 | 1.0 | 1.0 | 1.0 | 31.3 | 1.95 | 31.3 | 1.0 | 1.0 | 0.5 | 1.95 | 0.25 | 1.0 | Autopsy, gross tissue changes ([1]; oral, 7 days, Example 25: 1000 mg./kg.): congestion of the glandular portion of the stomachs of two of the three mice was observed
CCCCC(CC)CNc1cc[n+](CCCCCCCCCC[n+]2ccc(NCC(CC)CCCC)cc2)cc1 (stereo not drawn) [Example 59, 1,10-Bis-[4-(2-ethylhexylamino)-1-pyridinium]-decane dichloride] | 0/3 | 0/3 | 0/3 | 2/3 | 1/3 | 1/3 | 1/3 | 750 | 1.0 | 1.0 | 0.5 | 7.8 | 15.6 | 31.3 | 1.95 | 1.95 | 1.0 | 1.95 | 0.25 | 1.0 | Mortality 24 Hrs [1, 4]: 0/3
CCCCCCCNc1cc[n+](CCCCCCCC[n+]2ccc(NCCCCCCC)cc2)cc1 [Example 23] | 0/3 | 0/3 | 0/3 | 1/3 | 1/3 | 3/3 | 3/3 | 625 | 1.95 | 1.0 | 1.95 | 62.6 | 7.8 | 31.3 | 1.95 | 1.0 | 1.0 | 1.95 | 0.5 | 1.95 | Mortality 24 Hrs [1, 4]: 0/3
CCCCCCCCNc1cc[n+](CCCCCCCC[n+]2ccc(NCCCCCCCC)cc2)cc1 [Example 12, 1,8-Bis-[4-(octylamino)-1-pyridinium]octane dichloride] | 0/3 | 0/3 | 0/3 | 1/3 | 1/3 | 2/3 | 2/3 | 750 | 1.0 | 1.0 | 0.5 | 3.9 | 7.8 | 7.8 | 1.0 | 1.0 | 0.5 | 1.0 | 0.25 | 1.0 | Mortality 24 Hrs [1, 4]: 0/3
CCCCCCCNc1cc[n+](CCCCCCCCCCCCCC[n+]2ccc(NCCCCCCC)cc2)cc1 [Example 1D, 1,14-bis-[4-(heptylamino)-1-pyridinium]-tetradecane dibromide] | – | – | – | – | – | – | – | – | 1.54 | 3.0 | 0.77 | 1.54 | 3.0 | 3.0 | 1.54 | 1.54 | 1.95 | 0.77 | 0.77 | 0.77 | Virucidal activity against Herpes simplex type 2 virus [3]: active; Mortality 7 Days [1, 8]: 0/3; Mortality 24 Hrs [1, 8]: 0/3; Mortality 7 Days [1, 9]: 0/3; Mortality 24 Hrs [1, 9]: 0/3; Mortality 7 Days [1, 10]: 1/3; Mortality 24 Hrs [1, 10]: 1/3; Mortality 7 Days [1, 11]: 2/3; Mortality 24 Hrs [1, 11]: 2/3; 7-Day ALD50 ([1]; oral, suspension in 1% gum tragacanth, 10080 min): 750 mg/kg; Fold Increase in MIC S. Aureus ATCC 6538 (S. Aureus ATCC 6538; 40% vs 0% horse serum): 16 fold; MIC (S. Aureus ATCC 6538; 40% heat inactivated horse serum, read-out: MIC S. Aureus ATCC 6538 40% Serum): 3.12 µg/mL; MIC (S. Aureus ATCC 6538; read-out: MIC S. Aureus ATCC 6538 0% Serum): 0.195 µg/mL; Fold Increase in MIC E. Coli ATCC 8739 (E. Coli ATCC 8739; 40% vs 0% horse serum): 16 fold; MIC (E. Coli ATCC 8739; 40% heat inactivated horse serum, read-out: MIC E. Coli ATCC 8739 40% Serum): 25 µg/mL; MIC (E. Coli ATCC 8739; read-out: MIC E. Coli ATCC 8739 0% Serum): 1.56 µg/mL
